# pIC50: −log10 of the molar value.
# Target: T1, farnesyl protein transferase (FPT) (Rattus norvegicus, UniProt Q02293+Q04631)
# T1 construct: were partially purified from rat brain by ammonium sulfate fractionation; from tissue; host or cells: rat brain
# Assay: Inhibition of farnesyl protein transferase (FPT), in vitro enzyme assay, Ras-CVLS farnesylation
# Assay type: biochemical, rat (partially purified rat brain)
# Conditions: Table 22
# Protocol: Two forms of val^12 -Ha-Ras protein were prepared as substrates for these enzymes, differing in their carboxy terminal sequence. One form terminated in cysteine-valine-leucine-serine (Ras-CVLS) the other in cystein-valine-leucine-leucine (Ras-CVLL). Ras-CVLS is a substrate for the famesyl protein transferase while Ras-CVLL is a substrate for geranylgeranyl protein transferase I. The cDNAs encoding these proteins were constructed so that the proteins contain an amino-terminal extension of 6 histidine residues. Both proteins were expressed in Escherichia coli and purified using metal chelate affinity chromatography. The radiolabelled isoprenyl pyrophosphate substrates, [^3 H]farnesyl pyrophosphate and [^3 H]geranylgeranyl pyrophosphate, were purchased from DuPont/New England Nuclear.
# The reaction was allowed to proceed for 30 minutes at room temperature and then stopped with 0.5 ml of 4% sodium dodecyl sulfate (SDS) followed by 0.5 ml of cold 30% trichloracetic acid (TCA). Samples were allowed to sit on ice for 45 minutes and precipitated Ras protein was then collected on GF/C filter paper mats using a Brandel cell harvester. Filter mats were washed once with 6% TCA, 2% SDS and radioactivity was measured in a Wallac 1204 Betaplate BS liquid scintillation counter. Percent inhibition was calculated relative to the DMSO vehicle control.
row,SMILES,pIC50
1,O=C(Cc1ccnc(-n2ccnc2)c1)N1CCC(C2c3ccc(Cl)cc3CCc3cc(Br)cnc32)CC1 (stereo not drawn) [Example 410-T],5.74
2,CN1CCN(c2cc(CC(=O)N3CCC(C4c5ccc(Cl)cc5CCc5cc(Br)cnc54)CC3)ccn2)CC1 (stereo not drawn) [Example 410-U],5.30
3,C[C@H](N)C(=O)N1CCC(CC(=O)N2CCN(C3c4ccc(Cl)cc4CCc4cccnc43)CC2)CC1 (stereo partly drawn) [Example 433],5.60

# Now from value to compound:
row,pIC50,SMILES
1,5.94,CS(=O)(=O)c1cc(CC(=O)N2CCC(C3c4ccc(Cl)cc4CCc4cc(Br)cnc43)CC2)ccn1 (stereo not drawn) [Example 410-W]
2,5.93,CSc1cc(CC(=O)N2CCC(C3c4ccc(Cl)cc4CCc4cc(Br)cnc43)CC2)ccn1 (stereo not drawn) [Example 410-V]
3,5.72,CSCC[C@H](N)C(=O)N1CCC(CC(=O)N2CCN(C3c4ccc(Cl)cc4CCc4cccnc43)CC2)CC1 (stereo partly drawn) [Example 433-B]

# — patent US5807852A, “Tricyclic amide and urea compounds useful for inhibition of G-protein function and for treatment of proliferative diseases” (Schering Corporation, priority 1995, dated 1998)
